Series [1] deals with T1, human MCH1 receptor (Homo sapiens, UniProt Q99705). Kind of series: Intracellular calcium response to MCH in COS-7 cells transfected with MCH1 (fluo-3, FLIPR): antagonist potency. It is filed as cell-based. Also noted: expressed in transfected cells; host or cells: COS-7. Conditions: read-out: Kb (nM) hMCH1. The text has this: MCH1 antagonist compounds were identified by their ability to inhibit the MCH-elicited response. […]. From the IC50 values, the antagonist potency (Kb)was derived using the Cheng-Prussof correction (Lazareno and Birdsall, 1993). […]
T1 sequence (Q99705 whole entry): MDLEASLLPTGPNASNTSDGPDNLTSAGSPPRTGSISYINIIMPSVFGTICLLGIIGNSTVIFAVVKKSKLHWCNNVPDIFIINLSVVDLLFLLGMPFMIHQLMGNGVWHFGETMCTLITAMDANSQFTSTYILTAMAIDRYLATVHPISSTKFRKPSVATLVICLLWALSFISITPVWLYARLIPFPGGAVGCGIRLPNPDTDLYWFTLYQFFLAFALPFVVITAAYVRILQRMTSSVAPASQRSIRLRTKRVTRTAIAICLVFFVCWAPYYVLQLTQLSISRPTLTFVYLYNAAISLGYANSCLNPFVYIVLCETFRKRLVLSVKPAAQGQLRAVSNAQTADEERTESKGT

For another series, the target named is T2, human GALR1 receptor (Homo sapiens, UniProt P47211).
T2 construct: expressed in transfected cells
T2 sequence (P47211 1-349): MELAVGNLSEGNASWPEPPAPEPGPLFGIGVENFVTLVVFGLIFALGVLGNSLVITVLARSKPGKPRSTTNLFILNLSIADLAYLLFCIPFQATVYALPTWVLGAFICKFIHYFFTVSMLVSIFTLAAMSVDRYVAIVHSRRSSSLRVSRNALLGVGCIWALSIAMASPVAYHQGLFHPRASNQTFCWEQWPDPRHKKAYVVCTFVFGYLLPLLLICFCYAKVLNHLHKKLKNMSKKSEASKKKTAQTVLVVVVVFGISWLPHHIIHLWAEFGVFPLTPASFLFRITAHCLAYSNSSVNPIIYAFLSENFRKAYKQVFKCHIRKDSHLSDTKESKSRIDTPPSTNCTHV
Kind of series: Binding affinity at the human GALR1 receptor. Conditions: read-out: hGALR1 Ki. The text has this: (§1) The design of such compounds can be optimized by determining their binding affinity at the recombinant MCH1, NPY1, NPY2, Gal1, Gal2, Gal3, and 5HT2C receptors. The methods to obtain the cDNA of the receptor, express said receptors in heterologous systems, and carry out assays to determine binding affinity are described in the following publications: human NPY1 (Larhammar et al., 1992), human NPY5 (U.S. Pat. No. 5,602,024, the disclosure of which is hereby incorporated by reference in its entirety into this application), human Gall (Habert-Ortoli et al., 1994), human Gal2 (Smith et al., 1997), human Gal3 (Smith et al., 1998), and rat 5HT2C (Julius et al., 1988). Additionally, the compounds would optimally not bind at the following receptors due to possible side effects: human H1 histamine and human H2 histamine receptors; human alpha-1A adrenergic, human alpha-1D adrenergic, human alpha-2A adrenergic, human alpha-2B adrenergic, and human alpha-2C adrenergic receptors; human dopamine D1, D2, D3, D4, and D5 receptors; the β-adrenoceptor; and the human 5HT1A, human 5HT1B, human 5HT1D, human 5HT1E, human 5HT1F, human 5HT2A, rat 5HT2C, human 5HT4, human 5HT6, and human 5HT7 receptors.

The target of a further series is T3, human GALR2 receptor (Homo sapiens, UniProt O43603).
T3 construct: expressed in transfected cells
T3 sequence (O43603 1-387): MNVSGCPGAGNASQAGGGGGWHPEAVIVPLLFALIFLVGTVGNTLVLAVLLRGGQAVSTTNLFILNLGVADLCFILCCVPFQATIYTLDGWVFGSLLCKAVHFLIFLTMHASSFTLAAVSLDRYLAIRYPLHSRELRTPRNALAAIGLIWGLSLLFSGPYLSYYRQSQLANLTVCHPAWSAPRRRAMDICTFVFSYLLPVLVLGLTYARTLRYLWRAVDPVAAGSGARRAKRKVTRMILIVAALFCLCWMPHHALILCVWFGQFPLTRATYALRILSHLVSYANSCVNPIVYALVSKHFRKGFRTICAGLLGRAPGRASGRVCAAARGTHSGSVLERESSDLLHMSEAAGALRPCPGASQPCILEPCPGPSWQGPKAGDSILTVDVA
Kind of series: Binding affinity at the human GALR2 receptor. Conditions: Table 3a; read-out: hGALR2 Ki.
Text: as §1

A further series addresses T4, human GALR3 receptor (Homo sapiens, UniProt O60755).
T4 construct: expressed in transfected cells
T4 sequence (O60755 1-368): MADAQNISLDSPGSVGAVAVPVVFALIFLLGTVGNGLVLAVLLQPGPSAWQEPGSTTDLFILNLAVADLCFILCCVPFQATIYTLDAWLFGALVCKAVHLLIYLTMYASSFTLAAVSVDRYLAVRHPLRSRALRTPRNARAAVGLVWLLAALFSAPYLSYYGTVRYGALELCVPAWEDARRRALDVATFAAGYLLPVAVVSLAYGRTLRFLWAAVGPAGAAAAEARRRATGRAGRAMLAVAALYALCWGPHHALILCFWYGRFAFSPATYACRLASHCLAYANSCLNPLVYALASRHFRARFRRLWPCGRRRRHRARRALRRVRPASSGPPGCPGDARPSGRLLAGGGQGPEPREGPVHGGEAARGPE
Kind of series: Binding affinity at the human GALR3 receptor. The settings on record: read-out: hGALR3 Ki.
Text: as §1

Another series has as its target T5, rat 5HT2C receptor (Rattus norvegicus, UniProt P08909).
T5 construct: expressed in transfected cells
T5 sequence (P08909 33-460): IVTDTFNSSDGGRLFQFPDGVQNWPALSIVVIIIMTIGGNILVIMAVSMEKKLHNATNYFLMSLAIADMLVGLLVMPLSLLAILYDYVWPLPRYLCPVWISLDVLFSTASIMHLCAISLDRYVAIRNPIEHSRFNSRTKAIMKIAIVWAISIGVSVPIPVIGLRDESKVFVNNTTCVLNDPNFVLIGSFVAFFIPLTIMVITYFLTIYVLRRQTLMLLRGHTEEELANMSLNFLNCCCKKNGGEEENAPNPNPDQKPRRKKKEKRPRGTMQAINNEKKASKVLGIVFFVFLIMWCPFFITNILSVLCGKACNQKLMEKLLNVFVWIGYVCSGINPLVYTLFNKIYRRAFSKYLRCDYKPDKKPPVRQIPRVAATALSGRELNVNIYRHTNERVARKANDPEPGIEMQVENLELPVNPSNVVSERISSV
Kind of series: Binding affinity at the rat 5HT2C receptor. The settings on record: Table 3a; read-out: r5HT2C Ki.
Text: as §1
Other 5HT Receptors: Other serotonin receptor binding assays were performed according to published methods: rat 5HT2C receptor (Julius et al., 1988); and 5HT6 (Monsma, et al., 1993). The binding assays using the 5HT4 receptor were performed according to the procedures described in U.S. Pat. No. 5,766,879, the disclosure of which is hereby incorporated by reference in its entirety into this application.

Series [2] has as its target T1, human MCH1 receptor. The series can be described thus: Competition binding, membrane preparations of A293 cells expressing the human MCH1 receptor, [3H] Compound 10 as radioligand. The arrangement: expressed in transfected cells. Conditions: Table 3b; A293 cell membranes, [3H] Compound 10; read-out: hMCH1* Ki. Here is the method: TRITIATED METHYL (4S)-3-{[(3-{4-[3-(ACETYLAMINO)PHENYL]-1-[…]}PROPYL)AMINO]CARBONYL}-4-(3,4-DIFLUOROPHENYL)-6-(METHOXYMETHYL)-2-OXO-1,2,3,4-TETRAHYDRO-5-PYRIMIDINECARBOXYLATE ([^3H] COMPOUND 10): This radiochemical synthesis was carried out by Amersham Pharmacia Biotech, Cardiff, Wales. A methanolic solution of methyl (4S)-3-({[3-(4-[3-(acetylamino)phenyl]-3,6-dihydro-1(2H)pyridinyl)propyl]amino}carbonyl)-4-(3,4-difluorophenyl)-6-(methoxymethyl)-2-oxo-1,2,3,4-tetrahydro-5-pyrimidinecarboxylate was exposed to tritium gas at 1 atmosphere pressure in the presence of 5% palladium on carbon with stirring overnight to give the tritiated methyl (4S)-3-{[(3-{4-[3-(acetylamino)phenyl]-1-piperidinyl}propyl)amino]carbonyl}-4-(3,4-difluorophenyl)-6-(methoxymethyl)-2-oxo-1,2,3,4-tetrahydro-5-pyrimidinecarboxylate ((+)-isomer) After purification by reverse phase HPLC (Hypersil ODS, 4.6×100 mm, methanol:H2O:Et3N 10:90:1 to 100:0:1 in 15 min at 1.0 mL/min, with radiochemical and UV detection), this product was used as a radioligand in the MCH1 binding assays. The same procedure was carried out with H2 gas in place of ^3H2 to afford the non-radioactive version of Compound 10.

Each structure is given as a SMILES string. Structures can show the parent of a compound that is named as a salt. Where two headings read alike, the source gives them in different places.

Regarding `COCC1=C(C(=O)OC)C(c2ccc(F)c(F)c2)N(C(=O)NCCCN2CCC(O)(c3ncccc3C)CC2)C(=O)N1` (single isomer, unassigned; (+)) [Example 16, (+)-1,2,3,6-TETRAHYDRO-1-{N-[4-HYDROXY-4-(2-PYRIDYL)-PIPERIDIN-1-YL]PROPYL}CARBOXAMIDO-4-METHOXYMETHYL-6-(3,4-DIFLUOROPHENYL)-2-OXOPYRIMIDINE-5-CARBOXYLIC ACID METHYL ESTER], the melting point (in general, the temperature of the solid-liquid transition) was 132 to 135 °C. The Kb (as a rule, the equilibrium dissociation constant of an antagonist, usually derived from a functional assay) on human MCH1 receptor [1] was found to be 329 nM.

On to `COCC1=C(C(=O)OC)C(c2ccc(F)c(F)c2)N(C(=O)NCCCN2CCC(c3cccc4ccccc34)CC2)C(=O)N1` (single isomer, unassigned; (+)) [Example 14, (+)-1,2,3,6-TETRAHYDRO-1-{N-[4-(1-NAPHTHYL)-PIPERIDIN-1-YL]PROP-YL}CARBOXAMIDO-4-METHOXYMETHYL-6-(3,4-DIFLUOROPHENYL)-2-OXO-PYRIMIDINE-5-CARBOXYLIC ACID METHYL ESTER], for which the melting point fell in the range of 168 to 172 °C. The Ki – broadly, a measure of affinity in units of concentration, obtained from inhibition or displacement – on human GALR1 receptor (Table 3a) was over 50000 nM. Also, the Ki at human GALR1 receptor (Table 3b) was over 50000 nM. In addition, the Ki at human GALR2 receptor was 42600 nM. On human GALR3 receptor (Table 3a), the Ki was over 50000 nM. Moreover, the inhibitory constant (Ki) at human GALR3 receptor (Table 3b) is over 50000 nM. In addition, at rat 5HT2C receptor, the Ki stood at 663 nM. Besides, the Ki at human MCH1 receptor [2] was 50 nM. Also, the Kb at human MCH1 receptor [1] was 2 nM.

Consider `COC(=O)C1=C(C)NC(=O)N(C(=O)NCCCN2CCC3(CC2)OCc2ccccc23)C1c1ccc(F)c(F)c1` (stereo not shown) (as salt: hydrochloride) [Example 20, 4-(3,4-DIFLUORPHENYL)-6-METHYL-2-OXO-3-{[3-(4-SPIRO[ISOBENZOFURAN-1(3H),4′-PIPERIDINE]PROPYL}-1,2,3,4-TETRAHYDROPYRIMIDINE-5-CARBOXYLIC ACID METHYL ESTER], for which the melting point lay within 178 to 182 °C.

The molecule `COC(=O)C1=C(C)NC(=O)N(C(=O)NCCCN2CCC3(CCc4ccccc43)CC2)C1c1ccc(F)c(F)c1` (stereo not shown) [Example 32] gave a melting point of 150 to 153 °C.

For the molecule `COCC1=C(C(=O)OC)C(c2ccc(F)c(F)c2)N(C(=O)NCCCN2CCC(c3cccc(OC)c3)CC2)C(=O)N1` (single isomer, unassigned; (+)) [Example 9, (+)-1,2,3,6-TETRAHYDRO-1-N-[4-(3-METHOXY)-PHENYL}-PIPERIDIN-1-YL]-PROPYL-CARBOXAMIDO-4-METHOXYMETHYL-6-(3,4-DIFLUOROPHENYL)-2-OXOPYRIMIDINE-5-CARBOXYLIC ACID METHYL ESTER], the melting point lay in the range of 80 to 84 °C. For the same molecule, the Kb on human MCH1 receptor [1] was determined as 35 nM.

As for `COC(=O)C1=C(C)NC(=O)N(C(=O)NCCCN2CCN(c3ccccc3C)CC2)C1c1ccc(F)c(F)c1` (stereo not shown) (as salt: hydrochloride) [Example 35, 1,2,3,6-TETRAHYDRO-1{N-[4-(2′-METHYL-PHENYL)PIPERAZIN-1-YL]-PROPYL}-CARBOXAMIDO-4-METHYL-6-(3,4-DIFLUOROPHENYL)-2-OXO-PYRIMIDINE], the melting point lay in the range of 66 to 71 °C.

In the case of `COC(=O)C1=C(C)NC(=O)N(C(=O)NCCCN2CCC3(CCc4ccccc43)CC2)C1c1ccc2nonc2c1` (racemic) (as salt: hydrochloride) [Example 21], the melting point lay within 155 to 157 °C.

`COC(=O)C1=C(C)NC(=O)N(C(=O)NCCCN2CCC3(CC2)OCc2ccccc23)C1c1ccc2nonc2c1` (single isomer, unassigned) (as salt: hydrochloride) [Example 18] yielded a melting point of 180 to 182 °C.

`COCC1=C(C(=O)OC)C(c2ccc(F)c(F)c2)N(C(=O)NCCCN2CCC(OC(C)=O)(c3ccccc3)CC2)C(=O)N1` (stereo not shown) (as salt: hydrochloride) [Example 3, (1)-1,2,3,6-TETRAHYDRO-1-{N-[3-(4-O-ACETYL)-4-PHENYLPIPERIDIN-1-YL]PROPYL}CARBOXAMIDO-5-METHOXYCARBONYL-4-METHOXYMETHYL-6-(3,4-DIFLUOROPHENYL)-2-OXOPYRIMIDINE] showed a melting point of 82 to 84 °C.

The record behind these values is patent US20040038855A1 (priority 1999, published 2004).
